We go through seven molecules from the supplement of paper PMC8149375.

“And” between values parts separate entries of the source, which are not always exact repeats. Identical values can stand only once.

Holding throughout (details): treatment: drug + dasatinib (fixed dose, not stated); 5 days
Test [1] concerns 769-P. Kind of test: GI50 of drug in presence of dasatinib; higher = less potent. How it is done: (§1)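 Primary HTS combination arm: 8 RCC cell lines treated with 8 doses (up to 10 uM) of each library drug plus a fixed dose of dasatinib (dose not stated) for 5 days; viability read by CellTiter-Glo and normalised to DMSO. GI50 was fitted with XLfit, AUC is the area under the dose-response curve, and minimum viability is the lowest fraction of DMSO viability across doses.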

Test [2] relates to 786-O. The description is as above. Here is the method: as §1
The test system of test [3] is A498. The test is described as above. Here is the method:
as §1

Test [4] concerns ACHN. The description is as above. How it is done: as §1
The subject of test [5] is CAKI-1. The test is described as above. Here is the method:
as §1

The test system of test [6] is SN12C. The description is as above. How it is done:
as §1

Test [7] relates to TK-10. The test is described as above. How it is done:
as §1

For test [8], the system named is UO-31. Described as above. Here is the method:
as §1

Test [9] deals with 769-P. Kind of test: minimum viability across doses, drug + dasatinib, relative to DMSO (fraction); higher = less growth inhibition. Here is the method:
as §1

Test [10] has as its system 786-O. The test is described as above. How it is done: as §1
Test [11] concerns A498. Described as above. Here is the method: as §1
Test [12] deals with ACHN. Described as above. How it is done:
as §1

Test [13] deals with CAKI-1. The test is described as above. Here is the method: as §1
The subject of test [14] is SN12C. The test is described as above. How it is done:
as §1

Test [15] concerns TK-10. Described as above. How it is done: as §1
Test [16] has as its system UO-31. Described as above. How it is done:
as §1

In test [17] the test system is 769-P. Kind of test: AUC of dose-response viability curve, drug + dasatinib, normalised to DMSO (arbitrary (AUC of normalised viability)); higher = less growth inhibition. Here is the method:
as §1

Test [18] relates to 786-O. Described as above. How it is done: as §1
In test [19] the test system is A498. The test is described as above. How it is done: as §1
Test [20] relates to ACHN. The test is described as above. How it is done:
as §1

The subject of test [21] is CAKI-1. Described as above. Here is the method:
as §1

Test [22] concerns SN12C. Described as above. Here is the method: as §1
For test [23], the system named is TK-10. The test is described as above. Here is the method:
as §1

The test system of test [24] is UO-31. Described as above. How it is done:
as §1

Take `CC(C)c1ccccc1Cc1cc(C(=O)Nc2ccc(S(=O)(=O)c3ccccc3C(C)(C)C)cc2)c(O)c(O)c1O` [TW-37] + Cc1nc(Nc2ncc(C(=O)Nc3c(C)cccc3Cl)s2)cc(N2CCN(CCO)CC2)n1 [dasatinib]: the GI50 of drug in the test with 769-P [1] is 1570 nM; in the test with 786-O [2] it was 1200 nM; with A498 [3], above 10000 nM; with ACHN [4], 344 nM; in the test with CAKI-1 [5] it was 506 nM; in the test with SN12C [6] it was above 10000 nM. The GI50 of drug was 3060 nM with TK-10 [7] and 9770 nM in the test on UO-31 [8]. The “minimum viability across doses” value in the test on 769-P [9] came out at 0.0407; in the test on 786-O [10], 0.124; in the test on A498 [11], 0.773; with ACHN [12] it was 0.0767; in the test with CAKI-1 [13], 0.0425; in the test with SN12C [14] it was 0.519. In addition, the results for the “minimum viability across doses” value in the test on TK-10 [15] and in the test on UO-31 [16] were 0.325 and 0.416, respectively. The “AUC of dose-response viability curve” value in the test on 769-P [17] amounted to 2.19; in the test with 786-O [18], 2.07; in the test on A498 [19], 3.28; in the test on ACHN [20], 1.58; with CAKI-1 [21], 1.77; in the test on SN12C [22], 2.6. The figures for the “AUC of dose-response viability curve” value in the test on TK-10 [23] and in the test with UO-31 [24] were 2.18 and 4.4, respectively.

In the case of `Cc1cnc(Nc2ccc(N3CCN(C)CC3)cc2)nc1Nc1cccc(S(=O)(=O)NC(C)(C)C)c1` + Cc1nc(Nc2ncc(C(=O)Nc3c(C)cccc3Cl)s2)cc(N2CCN(CCO)CC2)n1 [dasatinib], the GI50 of drug is 878 nM and 719 nM in the test on 769-P [1]; 497 nM and 187 nM with 786-O [2]; 4270 nM and 3210 nM with A498 [3]; 79.9 nM and 106 nM in the test with ACHN [4]; 271 nM and 152 nM in the test on CAKI-1 [5]; 746 nM and 690 nM with SN12C [6]. In addition, the GI50 of drug in the test with TK-10 [7] was 336 nM and 309 nM; with UO-31 [8], 903 nM and 821 nM. The “minimum viability across doses” value in the test on 769-P [9] is 0.0284 and 0.0197; in the test with 786-O [10], 0.0113 and 0.0115; with A498 [11] it was 0.176 and 0.14; in the test on ACHN [12], 0.00194 and 0.00321; with CAKI-1 [13], 0.00497 and 0.00392; in the test with TK-10 [15] it was 0.00138 and 0.00232. Moreover, in the test with UO-31 [16], the “minimum viability across doses” value was 0.0085 and 0.0129. The “AUC of dose-response viability curve” value was 1.99 and 2 in the test on 769-P [17]; 1.88 and 1.72 in the test on 786-O [18]; 3.36 and 2.9 in the test on A498 [19]; 1.25 and 1.24 in the test on ACHN [20]; 1.56 and 1.46 in the test with CAKI-1 [21]; 1.85 and 1.91 with SN12C [22]. Besides, the “AUC of dose-response viability curve” value is 1.73 and 1.65 with TK-10 [23]; 3.14 and 3 in the test on UO-31 [24].

Regarding `CO[C@@H](C(=O)N1Cc2[nH]nc(NC(=O)c3ccc(N4CCN(C)CC4)cc3)c2C1)c1ccccc1` + Cc1nc(Nc2ncc(C(=O)Nc3c(C)cccc3Cl)s2)cc(N2CCN(CCO)CC2)n1 [dasatinib], the GI50 of drug in the test on 769-P [1] was 2950 nM and 3100 nM; in the test on 786-O [2], 184 nM and 231 nM; in the test on A498 [3] it was 1310 nM and 2720 nM; in the test on ACHN [4] it was 18.2 nM and 153 nM; with CAKI-1 [5], 170 nM and 198 nM; in the test on SN12C [6], 491 nM and 366 nM. The GI50 of drug was 1560 nM and 1030 nM in the test on TK-10 [7]; 3120 nM and 3920 nM in the test with UO-31 [8]. For the same molecule, the “minimum viability across doses” value in the test with 769-P [9] is 0.346 and 0.337; in the test on A498 [11] it was 0.36 and 0.384; with ACHN [12], 0.0933 and 0.0842; with CAKI-1 [13], 0.0301 and 0.0221; in the test on SN12C [14], 0.159 and 0.145; in the test with TK-10 [15] it was 0.146 and 0.131. In the test on UO-31 [16], the “minimum viability across doses” value is 0.0249 and 0.0141. Also, the “AUC of dose-response viability curve” value in the test on 769-P [17] was 2.12 and 2.33; with 786-O [18], 1.57 and 1.49; with A498 [19] it was 2.44 and 2.82; with ACHN [20] it was 1.37 and 1.42; in the test on CAKI-1 [21], 1.46; with SN12C [22], 1.95 and 1.86. Besides, the “AUC of dose-response viability curve” value is 2.19 and 2.06 in the test with TK-10 [23]; 2.67 and 3.57 in the test on UO-31 [24].

`Cc1ccc(C(=O)Nc2ccc(CN3CCN(C)CC3)c(C(F)(F)F)c2)cc1C#Cc1cnc2cccnn12` + Cc1nc(Nc2ncc(C(=O)Nc3c(C)cccc3Cl)s2)cc(N2CCN(CCO)CC2)n1 [dasatinib]: the GI50 of drug with 769-P [1] came out at 624 nM; with 786-O [2], 402 nM; in the test on A498 [3], 935 nM; in the test on ACHN [4] it was 68.8 nM; in the test on CAKI-1 [5] it was 127 nM; with SN12C [6], 230 nM. The GI50 of drug was 390 nM in the test on TK-10 [7] and 311 nM in the test on UO-31 [8].

On to `CCOc1ccn(-c2ccc(F)cc2)c(=O)c1C(=O)Nc1ccc(Oc2ccnc(N)c2Cl)c(F)c1` + Cc1nc(Nc2ncc(C(=O)Nc3c(C)cccc3Cl)s2)cc(N2CCN(CCO)CC2)n1 [dasatinib], for which the GI50 of drug was above 10000 nM with 769-P [1]; 1570 nM in the test with 786-O [2]; above 10000 nM in the test on A498 [3]; 642 nM with ACHN [4]; above 10000 nM in the test on SN12C [6]; above 10000 nM in the test with TK-10 [7]. For the same molecule, the GI50 of drug in the test with UO-31 [8] was above 10000 nM. Further, the “minimum viability across doses” value was determined as 0.495 in the test on 769-P [9]; 0.35 in the test on 786-O [10]; 0.61 in the test with A498 [11]; 0.247 with ACHN [12]; 0.118 in the test with CAKI-1 [13]; 0.528 in the test on SN12C [14]. Also, the “minimum viability across doses” value in the test with TK-10 [15] was 0.634; in the test on UO-31 [16], 0.695. The “AUC of dose-response viability curve” value is 2.36 in the test on 769-P [17]; 1.85 in the test with 786-O [18]; 2.83 in the test on A498 [19]; 1.66 in the test with ACHN [20]; 1.92 in the test with CAKI-1 [21]; 2.27 with SN12C [22]. For the same molecule, the “AUC of dose-response viability curve” value in the test with TK-10 [23] is 2.43; with UO-31 [24], 3.54.

`C[C@@H](Oc1cc(-n2cnc3ccc(CN4CCN(C)CC4)cc32)sc1C(N)=O)c1ccccc1C(F)(F)F` + Cc1nc(Nc2ncc(C(=O)Nc3c(C)cccc3Cl)s2)cc(N2CCN(CCO)CC2)n1 [dasatinib]: the GI50 of drug was found to be 31 nM in the test on 769-P [1]; 10.7 nM in the test with 786-O [2]; 21.2 nM with ACHN [4]; 38.1 nM in the test with CAKI-1 [5]; 89.1 nM with SN12C [6]; 265 nM in the test on TK-10 [7]. In addition, in the test with UO-31 [8], the GI50 of drug stood at 77.4 nM. Moreover, the “minimum viability across doses” value with 769-P [9] was determined as 0.0347; in the test on 786-O [10], 0.00468; in the test with A498 [11] it was 0.384; in the test with ACHN [12] it was 0.0897; in the test on CAKI-1 [13], 0.0912; with SN12C [14], 0.155. Besides, the “minimum viability across doses” value in the test on TK-10 [15] was determined as 0.171; in the test on UO-31 [16], 0.00496. The “AUC of dose-response viability curve” value stood at 1.14 with 769-P [17]; 0.653 with 786-O [18]; 1.97 in the test on A498 [19]; 1.22 in the test on ACHN [20]; 1.33 in the test with CAKI-1 [21]; 1.62 in the test on SN12C [22]. Besides, the “AUC of dose-response viability curve” value in the test with TK-10 [23] was 2.01; in the test on UO-31 [24], 1.32.

`Nc1ccc(-c2ccc3ncc4ccc(=O)n(-c5cccc(C(F)(F)F)c5)c4c3c2)cn1` [Torin 2] + Cc1nc(Nc2ncc(C(=O)Nc3c(C)cccc3Cl)s2)cc(N2CCN(CCO)CC2)n1 [dasatinib]: the GI50 of drug with 769-P [1] is 11.2 nM; with 786-O [2], below 3 nM; in the test with A498 [3] it was 22.6 nM; in the test with ACHN [4] it was below 3 nM; in the test with CAKI-1 [5], 12.3 nM; in the test with SN12C [6], 6.44 nM. In addition, the GI50 of drug in the test with UO-31 [8] came out at 14.9 nM. Further, the “minimum viability across doses” value with 769-P [9] is 0.0396; in the test on 786-O [10], 0.00374; in the test with A498 [11], 0.0422; in the test with ACHN [12] it was 0.033; in the test on CAKI-1 [13] it was 0.00828; in the test on SN12C [14], 0.0283. Also, the entries for the “minimum viability across doses” value in the test on TK-10 [15] and in the test with UO-31 [16] were 0.0129 and 0.00805, respectively. In addition, the “AUC of dose-response viability curve” value is 0.828 in the test on 769-P [17]; 0.422 in the test with 786-O [18]; 0.961 in the test with A498 [19]; 0.382 with ACHN [20]; 0.756 in the test on CAKI-1 [21]; 0.777 in the test with SN12C [22]. Moreover, the “AUC of dose-response viability curve” value in the test with TK-10 [23] worked out at 0.828; with UO-31 [24], 0.727.
